# Source: BindingDB's records for doi:10.1021/jm050513m (The University of Texas At Houston, 2005)
# Square brackets hold non-standard residues; d marks the D form. Peptide text beside a SMILES is read from it. * marks the point of attachment. ξ: configuration not given here. pY = N[C@@H](Cc1ccc(OP(=O)(O)O)cc1)C(=O)O; Dip = N[C@H](C(=O)O)C(c1ccccc1)c1ccccc1; Hydrocinnamoyl = O=C(CCc1ccccc1)*; Cha = N[C@@H](CC1CCCCC1)C(=O)O; NMeL = CN[C@@H](CC(C)C)C(=O)O; Thr(3ξ) = CC(O)[C@H](N)C(=O)O; αMeP = C[C@@]1(C(=O)O)CCCN1; Pip = O=C(O)[C@@H]1CCCCN1; Nle = CCCC[C@H](N)C(=O)O; Aze = O=C(O)[C@@H]1CCN1; Propionyl = CCC(=O)*; Bz = O=C(c1ccccc1)*
# Target: Signal transducer and activator of transcription 3 (Mus musculus, UniProt P42227)
# Sequence (P42227 whole entry): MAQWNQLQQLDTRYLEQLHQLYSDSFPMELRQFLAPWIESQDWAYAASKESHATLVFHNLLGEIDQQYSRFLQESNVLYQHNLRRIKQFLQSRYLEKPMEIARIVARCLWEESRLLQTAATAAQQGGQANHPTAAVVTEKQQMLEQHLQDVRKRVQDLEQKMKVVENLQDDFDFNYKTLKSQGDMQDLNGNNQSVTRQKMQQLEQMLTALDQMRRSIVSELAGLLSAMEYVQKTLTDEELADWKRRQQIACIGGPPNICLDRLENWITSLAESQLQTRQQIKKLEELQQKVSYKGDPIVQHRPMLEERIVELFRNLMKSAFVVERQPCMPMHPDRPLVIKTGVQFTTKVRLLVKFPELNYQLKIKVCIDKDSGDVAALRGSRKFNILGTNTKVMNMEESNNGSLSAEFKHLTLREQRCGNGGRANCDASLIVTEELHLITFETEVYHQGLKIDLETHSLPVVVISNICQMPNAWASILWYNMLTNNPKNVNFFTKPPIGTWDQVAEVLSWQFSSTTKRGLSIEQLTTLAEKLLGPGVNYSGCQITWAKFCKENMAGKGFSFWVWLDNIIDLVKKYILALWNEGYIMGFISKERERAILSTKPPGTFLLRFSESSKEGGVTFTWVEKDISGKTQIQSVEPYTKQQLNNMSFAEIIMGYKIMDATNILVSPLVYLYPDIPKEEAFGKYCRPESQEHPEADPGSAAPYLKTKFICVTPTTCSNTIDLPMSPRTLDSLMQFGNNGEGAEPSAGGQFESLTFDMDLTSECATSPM
# Assay: Fluorescence Polarization Assay
# Conditions: pH 7.5; 22 °C
# Description: Fluorescence polarization (FP) binding assay is utilizing the intrinsic property of the fluorescent probe, which will have low polarization value when free in solution. On binding to a target, the polarization of the probe will increase. Reaction mixtures of full length STAT3 alpha and the probe were placed in wells of a 96-well microtiter plate. The test peptide solution was added to each well. Fluorescence polarization was then read in a Tecan Polarian plate reader. The IC50 values were obtained from nonlinear regression analysis in the one-site competition mode. Peptides were assayed three times using three separate Stat3-probe preparations. IC50 values are reported as the mean of three IC50 values +/- the standard deviation.
row,SMILES,IC50
1,"CC(=O)N[C@@H](Cc1ccc(OP(=O)(O)O)cc1)C(=O)N[C@@H](CC(C)C)C(=O)N1CCC[C@@]1(C)C(=O)N[C@@H](CCC(N)=O)C(=O)N[C@H](C(N)=O)C(C)O (stereo partly drawn) [4-[(2S)-2-{[(2S)-1-[(2S)-2-{[(1S)-3-carbamoyl-1-{[(1S,2S)-1-carbamoyl-2-hydroxypropyl]carbamoyl}propyl]carbamoyl}-2-methylpyrrolidin-1-yl]-4-methyl-1-oxopentan-2-yl]carbamoyl}-2-acetamidoethyl]phenoxyphosphonic acid] (Ac-[pY]L[αMeP]Q[Thr(3ξ)]-NH2)",1870 nM
2,"CC(=O)N[C@@H](Cc1ccc(OP(=O)(O)O)cc1)C(=O)N[C@@H](CC(C)C)C(=O)N1CC[C@H]1C(=O)N[C@@H](CCC(N)=O)C(=O)N[C@H](C(N)=O)C(C)O (stereo partly drawn) [4-[(2S)-2-{[(2S)-1-[(2S)-2-{[(1S)-3-carbamoyl-1-{[(1S,2S)-1-carbamoyl-2-hydroxypropyl]carbamoyl}propyl]carbamoyl}azetidin-1-yl]-4-methyl-1-oxopentan-2-yl]carbamoyl}-2-acetamidoethyl]phenoxyphosphonic acid] (Ac-[pY]L[Aze]Q[Thr(3ξ)]-NH2)",1660 nM
3,"CCCC[C@H](NC(=O)[C@H](Cc1ccc(OP(=O)(O)O)cc1)NC(C)=O)C(=O)N1CCC[C@H]1C(=O)N[C@@H](CCC(N)=O)C(=O)N[C@H](C(N)=O)C(C)O (stereo partly drawn) [4-[(2S)-2-{[(2S)-1-[(2S)-2-{[(1S)-3-carbamoyl-1-{[(1S,2S)-1-carbamoyl-2-hydroxypropyl]carbamoyl}propyl]carbamoyl}pyrrolidin-1-yl]-1-oxohexan-2-yl]carbamoyl}-2-acetamidoethyl]phenoxyphosphonic acid] (Ac-[pY][Nle]PQ[Thr(3ξ)]-NH2)",717 nM
4,"CC(=O)N[C@@H](Cc1ccc(OP(=O)(O)O)cc1)C(=O)N[C@@H](CC1CCCCC1)C(=O)N1CCC[C@H]1C(=O)N[C@@H](CCC(N)=O)C(=O)N[C@H](C(N)=O)C(C)O (stereo partly drawn) [4-[(2S)-2-{[(2S)-1-[(2S)-2-{[(1S)-3-carbamoyl-1-{[(1S,2S)-1-carbamoyl-2-hydroxypropyl]carbamoyl}propyl]carbamoyl}pyrrolidin-1-yl]-3-cyclohexyl-1-oxopropan-2-yl]carbamoyl}-2-acetamidoethyl]phenoxyphosphonic acid] (Ac-[pY][Cha]PQ[Thr(3ξ)]-NH2)",910 nM
5,"CC(C)C[C@H](NC(=O)[C@H](Cc1ccc(OP(=O)(O)O)cc1)NC(=O)CCc1ccccc1)C(=O)N1CCC[C@H]1C(=O)N[C@@H](CCC(N)=O)C(=O)N[C@H](C(N)=O)C(C)O (stereo partly drawn) [4-[(2S)-2-{[(2S)-1-[(2S)-2-{[(1S)-3-carbamoyl-1-{[(1S,2S)-1-carbamoyl-2-hydroxypropyl]carbamoyl}propyl]carbamoyl}pyrrolidin-1-yl]-4-methyl-1-oxopentan-2-yl]carbamoyl}-2-(3-phenylpropanamido)ethyl]phenoxyphosphonic acid] (Hydrocinnamoyl-[pY]LPQ[Thr(3ξ)]-NH2)",276 nM
6,"CC(C)C[C@H](NC(=O)[C@H](Cc1ccc(OP(=O)(O)O)cc1)NC(=O)c1ccccc1)C(=O)N1CCC[C@H]1C(=O)N[C@@H](CCC(N)=O)C(=O)N[C@H](C(N)=O)C(C)O (stereo partly drawn) [4-[(2S)-2-{[(2S)-1-[(2S)-2-{[(1S)-3-carbamoyl-1-{[(1S,2S)-1-carbamoyl-2-hydroxypropyl]carbamoyl}propyl]carbamoyl}pyrrolidin-1-yl]-4-methyl-1-oxopentan-2-yl]carbamoyl}-2-(phenylformamido)ethyl]phenoxyphosphonic acid] (Bz-[pY]LPQ[Thr(3ξ)]-NH2)",814 nM
7,"CC(=O)N[C@@H](Cc1ccc(OP(=O)(O)O)cc1)C(=O)N[C@@H](CC(C)C)C(=O)N1CCC[C@H]1C(=O)N[C@@H](CCC(N)=O)C(=O)N[C@H](C(N)=O)C(C)O (stereo partly drawn) [4-[(2S)-2-{[(2S)-1-[(2S)-2-{[(1S)-3-carbamoyl-1-{[(1S,2S)-1-carbamoyl-2-hydroxypropyl]carbamoyl}propyl]carbamoyl}pyrrolidin-1-yl]-4-methyl-1-oxopentan-2-yl]carbamoyl}-2-acetamidoethyl]phenoxyphosphonic acid]",739 nM
8,"CCC(=O)N[C@@H](Cc1ccc(OP(=O)(O)O)cc1)C(=O)N[C@@H](CC(C)C)C(=O)N1CCC[C@H]1C(=O)N[C@@H](CCC(N)=O)C(=O)N[C@H](C(N)=O)C(C)O (stereo partly drawn) [4-[(2S)-2-{[(2S)-1-[(2S)-2-{[(1S)-3-carbamoyl-1-{[(1S,2S)-1-carbamoyl-2-hydroxypropyl]carbamoyl}propyl]carbamoyl}pyrrolidin-1-yl]-4-methyl-1-oxopentan-2-yl]carbamoyl}-2-propanamidoethyl]phenoxyphosphonic acid] (Propionyl-[pY]LPQ[Thr(3ξ)]-NH2)",497 nM

# Now from value to molecule:
row,IC50,SMILES
1,1240 nM,"CC(=O)N[C@@H](Cc1ccc(OP(=O)(O)O)cc1)C(=O)N[C@@H](CC(C)C)C(=O)N1CCCC[C@H]1C(=O)N[C@@H](CCC(N)=O)C(=O)N[C@H](C(N)=O)C(C)O (stereo partly drawn) [4-[(2S)-2-{[(2S)-1-[(2S)-2-{[(1S)-3-carbamoyl-1-{[(1S,2S)-1-carbamoyl-2-hydroxypropyl]carbamoyl}propyl]carbamoyl}piperidin-1-yl]-4-methyl-1-oxopentan-2-yl]carbamoyl}-2-acetamidoethyl]phenoxyphosphonic acid] (Ac-[pY]L[Pip]Q[Thr(3ξ)]-NH2)"
2,> 100000 nM,"CC(=O)N[C@@H](Cc1ccc(OP(=O)(O)O)cc1)C(=O)N[C@H](C(=O)N1CCC[C@H]1C(=O)N[C@@H](CCC(N)=O)C(=O)N[C@H](C(N)=O)C(C)O)C(c1ccccc1)c1ccccc1 (stereo partly drawn) [4-[(2S)-2-{[(2S)-1-[(2S)-2-{[(1S)-3-carbamoyl-1-{[(1S,2S)-1-carbamoyl-2-hydroxypropyl]carbamoyl}propyl]carbamoyl}pyrrolidin-1-yl]-1-oxo-3,3-diphenylpropan-2-yl]carbamoyl}-2-acetamidoethyl]phenoxyphosphonic acid] (Ac-[pY][Dip]PQ[Thr(3ξ)]-NH2)"
3,1890 nM,"CC(=O)N[C@@H](Cc1ccc(OP(=O)(O)O)cc1)C(=O)N[C@@H](Cc1ccccc1)C(=O)N1CCC[C@H]1C(=O)N[C@@H](CCC(N)=O)C(=O)N[C@H](C(N)=O)C(C)O (stereo partly drawn) [4-[(2S)-2-{[(2S)-1-[(2S)-2-{[(1S)-3-carbamoyl-1-{[(1S,2S)-1-carbamoyl-2-hydroxypropyl]carbamoyl}propyl]carbamoyl}pyrrolidin-1-yl]-1-oxo-3-phenylpropan-2-yl]carbamoyl}-2-acetamidoethyl]phenoxyphosphonic acid] (Ac-[pY]FPQ[Thr(3ξ)]-NH2)"
4,1540 nM,"CC(=O)N[C@@H](Cc1ccc(OP(=O)(O)O)cc1)C(=O)N[C@H](C(=O)N1CCC[C@H]1C(=O)N[C@@H](CCC(N)=O)C(=O)N[C@H](C(N)=O)C(C)O)C(C)C (stereo partly drawn) [4-[(2S)-2-{[(2S)-1-[(2S)-2-{[(1S)-3-carbamoyl-1-{[(1S,2S)-1-carbamoyl-2-hydroxypropyl]carbamoyl}propyl]carbamoyl}pyrrolidin-1-yl]-3-methyl-1-oxobutan-2-yl]carbamoyl}-2-acetamidoethyl]phenoxyphosphonic acid] (Ac-[pY]VPQ[Thr(3ξ)]-NH2)"
5,> 100000 nM,"CC(=O)N[C@@H](Cc1ccc(OP(=O)(O)O)cc1)C(=O)N(C)[C@@H](CC(C)C)C(=O)N1CCC[C@H]1C(=O)N[C@@H](CCC(N)=O)C(=O)N[C@H](C(N)=O)C(C)O (stereo partly drawn) [4-[(2S)-2-{[(2S)-1-[(2S)-2-{[(1S)-3-carbamoyl-1-{[(1S,2S)-1-carbamoyl-2-hydroxypropyl]carbamoyl}propyl]carbamoyl}pyrrolidin-1-yl]-4-methyl-1-oxopentan-2-yl](methyl)carbamoyl}-2-acetamidoethyl]phenoxyphosphonic acid] (Ac-[pY][NMeL]PQ[Thr(3ξ)]-NH2)"
